Experiment [1] deals with Kappa-type opioid receptor (Rattus norvegicus, UniProt P34975).
Experiment [2] deals with Delta-type opioid receptor (Rattus norvegicus, UniProt P33533).
For the next experiment, the target named is Mu-type opioid receptor (Rattus norvegicus, UniProt P33535).

The structures appear in SMILES notation.

Sequence of Delta-type opioid receptor (P33533 whole entry): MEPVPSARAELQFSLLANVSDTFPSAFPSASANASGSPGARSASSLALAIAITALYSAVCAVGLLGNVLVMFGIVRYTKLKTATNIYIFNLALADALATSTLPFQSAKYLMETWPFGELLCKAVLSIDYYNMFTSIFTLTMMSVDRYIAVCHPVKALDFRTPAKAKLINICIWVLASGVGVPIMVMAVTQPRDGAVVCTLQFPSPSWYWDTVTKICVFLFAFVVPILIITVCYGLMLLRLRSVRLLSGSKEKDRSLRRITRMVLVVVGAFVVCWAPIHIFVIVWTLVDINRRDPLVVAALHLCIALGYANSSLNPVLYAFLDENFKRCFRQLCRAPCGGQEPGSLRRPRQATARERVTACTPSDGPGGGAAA
Sequence of Kappa-type opioid receptor (P34975 whole entry): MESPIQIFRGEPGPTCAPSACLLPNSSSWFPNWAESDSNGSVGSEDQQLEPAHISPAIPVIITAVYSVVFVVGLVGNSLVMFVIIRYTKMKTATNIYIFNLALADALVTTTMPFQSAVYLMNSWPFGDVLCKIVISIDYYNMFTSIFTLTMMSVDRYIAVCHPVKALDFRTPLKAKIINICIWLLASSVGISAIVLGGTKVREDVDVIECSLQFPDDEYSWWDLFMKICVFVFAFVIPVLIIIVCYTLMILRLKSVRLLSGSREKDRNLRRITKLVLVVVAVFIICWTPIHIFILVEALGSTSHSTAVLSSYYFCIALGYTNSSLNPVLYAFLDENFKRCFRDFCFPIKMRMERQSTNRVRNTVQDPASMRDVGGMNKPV
Sequence of Mu-type opioid receptor (P33535 whole entry): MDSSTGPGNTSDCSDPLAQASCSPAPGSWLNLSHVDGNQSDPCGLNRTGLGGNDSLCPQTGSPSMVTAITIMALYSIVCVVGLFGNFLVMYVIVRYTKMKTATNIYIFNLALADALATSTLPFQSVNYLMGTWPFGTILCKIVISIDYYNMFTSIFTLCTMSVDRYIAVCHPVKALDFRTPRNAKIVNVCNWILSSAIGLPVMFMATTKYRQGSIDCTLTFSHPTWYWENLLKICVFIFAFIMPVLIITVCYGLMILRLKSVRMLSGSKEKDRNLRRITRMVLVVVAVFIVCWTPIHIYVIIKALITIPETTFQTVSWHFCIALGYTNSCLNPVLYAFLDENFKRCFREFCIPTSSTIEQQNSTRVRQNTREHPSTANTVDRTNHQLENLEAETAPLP

In experiment [1], `Oc1ccc2c3c1OC1c4[nH]c5c(c4CC4(O)CN(CCC314)C(C1CC1)C2)CC1(O)CN2CCC13c1c(ccc(O)c1OC53)CC2C1CC1` (stereo unspecified) [CAS_105618-26-6] registered a Ki of 38.8 nM. That is a double-digit nanomolar value.

For `CCO[C@@]12Cc3c([nH]c4ccccc34)[C@]3(C)Oc4c(O)ccc5c4[C@@]31CCN(CC1CC1)C2C5` [HS-378], the Ki in experiment [2] was 528 nM.

With `COC12CCC(=O)C3(C)Oc4c(O)ccc5c4C31CCN(C)C2C5` (stereo unspecified) [NSC_125489], the Ki at Mu-type opioid receptor was determined as 0.48 nM; in experiment [1] it was 25.2 nM.

At Mu-type opioid receptor, `COc1cccc2c1C13CCN(CC4CC4)C(C2)C1(OC)CCC(=O)C3` (stereo unspecified) [NSC_3081671] returned a Ki of 15.1 nM. That is a double-digit nanomolar value.

As for `CC(C)[C@H](NC(=O)[C@H](CCC(=O)O)NC(=O)[C@H](Cc1ccccc1)NC(=O)[C@@H](C)NC(=O)[C@@H](N)Cc1ccc(O)cc1)C(=O)N[C@H](C(=O)NCC(N)=O)C(C)C` [Tyr-D-Ala-Phe-Glu-Val-Val-GlyNH2], in experiment [2], the Ki was 48.3 nM.

Values taken from BindingDB's records for doi:10.1046/j.1460-9568.2003.02744.x (University of Innsbruck, 2003).
